Reference: ChEMBL document CHEMBL1140642, “Human serum albumin binding assay based on displacement of a non selective fluorescent inhibitor” (Bioorg Med Chem Lett, 2007)

What was measured:
[1] = biological target: T1, Albumin (Homo sapiens, UniProt P02768); test: Displacement of [C13]-methyl oleic acid from ibuprofen site of human serum albumin by NMR
[2] = biological target: T1, Albumin; test: Displacement of [C13]-methyl oleic acid from warfarin site of human serum albumin by NMR

T1 sequence (P02768 whole entry): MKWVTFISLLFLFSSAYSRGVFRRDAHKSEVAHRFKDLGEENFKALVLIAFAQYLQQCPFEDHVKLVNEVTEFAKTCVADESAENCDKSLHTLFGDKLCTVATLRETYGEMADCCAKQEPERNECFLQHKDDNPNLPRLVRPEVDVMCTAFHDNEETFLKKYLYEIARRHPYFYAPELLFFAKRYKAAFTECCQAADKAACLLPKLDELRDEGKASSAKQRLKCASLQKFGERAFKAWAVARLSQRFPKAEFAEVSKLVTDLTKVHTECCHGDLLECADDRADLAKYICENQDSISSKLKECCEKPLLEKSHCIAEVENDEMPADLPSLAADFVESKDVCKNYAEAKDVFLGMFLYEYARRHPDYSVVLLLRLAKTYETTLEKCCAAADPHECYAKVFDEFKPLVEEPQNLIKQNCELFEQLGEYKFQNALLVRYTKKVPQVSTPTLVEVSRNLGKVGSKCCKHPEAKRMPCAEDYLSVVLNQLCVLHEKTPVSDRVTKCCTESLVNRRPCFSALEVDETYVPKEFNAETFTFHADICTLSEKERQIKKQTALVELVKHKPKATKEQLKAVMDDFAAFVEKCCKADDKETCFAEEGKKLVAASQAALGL

## Cn1c(/C=C/c2ccc(C#N)cc2C(=O)O)cc2ccccc21
[1]
  Activity: Active
[2]
  Activity: Active
